Experimental data from the NIST ThermoML archive (doi:10.1016/j.jct.2015.07.028).
± gives the expanded uncertainty stated by the source.

Assay: Molar enthalpy of transition or fusion
Settings: Adiabatic calorimetry

Molar enthalpy of transition or fusion (Crystal 1): 1.243 ± 0.0112 kcal/mol
Molar enthalpy of transition or fusion (Crystal 2): 0.0406 ± 0.011 kcal/mol
SMILES: C=CC(C)(C)O [2-methyl-3-buten-2-ol]
